Laboratory results published in ChEMBL document CHEMBL4152385, “Synthesis, Receptor Affinity, and Antiallodynic Activity of Spirocyclic σ Receptor Ligands with Exocyclic Amino Moiety” (J Med Chem, 2018).
Blank lines part the entries; values can stand above or below the compound they belong to. Calls of active or inactive are those of the source. The rule behind the calls is not given here.

How the values were obtained:
[1] = molecular target: T1, Sigma non-opioid intracellular receptor 1 (Cavia porcellus, UniProt Q60492); test: Displacement of [3H]-(+)-pentazocine from sigma1 receptor in guinea pig brain cortex membranes incubated for 120 mins by scintillation counting method; format: cell membranes
[2] = molecular target: T2, Sigma intracellular receptor 2 (Rattus norvegicus, UniProt Q5U3Y7); test: Displacement of [3H]-di-o-tolylguanidine from sigma2 receptor in rat liver membranes incubated for 120 mins by scintillation counting method; format: cell membranes, Membrane
T2 sequence (Q5U3Y7 whole entry): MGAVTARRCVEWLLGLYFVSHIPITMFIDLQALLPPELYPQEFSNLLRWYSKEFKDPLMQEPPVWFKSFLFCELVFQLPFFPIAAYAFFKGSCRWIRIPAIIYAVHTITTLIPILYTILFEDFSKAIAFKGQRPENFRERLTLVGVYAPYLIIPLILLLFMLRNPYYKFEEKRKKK

Mus musculus [3] = test: Antiallodynic activity in CD1 mouse model of capsaicin-induced mechanical allodynia assessed as effect on paw withdrawal latency time at 2 to 64 mg/kg, sc administered 30 mins before capsaicin addition and measured at 30 secs intervals; format: functional, organism-based
Mus musculus [4] = test: Antiallodynic activity in CD1 mouse model of capsaicin-induced mechanical allodynia assessed as effect on paw withdrawal latency time at 4 to 64 mg/kg, sc administered 30 mins before capsaicin addition and measured at 30 secs intervals; format: functional, organism-based
[5] = molecular target: T2, Sigma intracellular receptor 2; test: Displacement of [3H]-DTG from sigma2 receptor in rat liver membranes; format: cell membranes, Membrane
[6] = Selectivity ratio of Ki for sigma2 receptor in rat liver membranes to Ki for sigma1 receptor in guinea pig brain cortex membranes; format: cell membranes
[7] = molecular target: T1, Sigma non-opioid intracellular receptor 1
[8] = Displacement of [3H]-(+)-MK-801 from NMDA PCP binding site in pig brain cortex membrane incubated for 120 mins by scintillation counting method; format: cell membranes, Sus scrofa
[9] = molecular target: Glutamate receptor ionotropic, NMDA 2B (Homo sapiens, UniProt Q13224); test: Displacement of [3H]ifenprodil from GluN2B (unknown origin) expressed in mouse L(tk-) cell membranes incubated for 120 mins by scintillation counting method
Mu-type opioid receptor [10] = molecular target: Mu-type opioid receptor (Homo sapiens, UniProt P35372); test: Agonist activity at human MOR expressed in CHOK1 cells assessed as reduction in forskolin-induced intracellular cAMP increase after 45 mins by HTRF analysis; format: functional, cell-based
[11] = molecular target: T3, Alpha-1A adrenergic receptor (Homo sapiens) (UniProt P35348); test: Inhibition of alpha-1A adrenergic receptor (unknown origin) at 1 uM relative to control
T3 sequence (whole entry): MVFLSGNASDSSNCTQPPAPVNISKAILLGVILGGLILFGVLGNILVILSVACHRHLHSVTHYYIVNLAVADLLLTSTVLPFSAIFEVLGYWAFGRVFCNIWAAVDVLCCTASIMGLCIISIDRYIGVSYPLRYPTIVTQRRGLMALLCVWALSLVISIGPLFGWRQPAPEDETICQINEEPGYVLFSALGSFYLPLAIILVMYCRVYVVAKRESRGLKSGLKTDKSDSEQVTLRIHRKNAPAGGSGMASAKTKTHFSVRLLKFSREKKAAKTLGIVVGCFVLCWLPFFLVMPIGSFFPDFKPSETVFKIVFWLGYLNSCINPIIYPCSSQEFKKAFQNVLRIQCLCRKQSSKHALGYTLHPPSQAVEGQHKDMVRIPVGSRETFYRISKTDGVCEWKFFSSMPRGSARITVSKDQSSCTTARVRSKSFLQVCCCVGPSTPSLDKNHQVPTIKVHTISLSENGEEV

[12] = molecular target: Histamine H1 receptor (Homo sapiens) (UniProt P35367); test: Inhibition of histamine H1 receptor (unknown origin) at 1 uM relative to control
[13] = molecular target: T4, 5-hydroxytryptamine receptor 1A (Homo sapiens) (UniProt P08908); test: Inhibition of 5-HT1A receptor (unknown origin) at 1 uM relative to control
T4 sequence (whole entry): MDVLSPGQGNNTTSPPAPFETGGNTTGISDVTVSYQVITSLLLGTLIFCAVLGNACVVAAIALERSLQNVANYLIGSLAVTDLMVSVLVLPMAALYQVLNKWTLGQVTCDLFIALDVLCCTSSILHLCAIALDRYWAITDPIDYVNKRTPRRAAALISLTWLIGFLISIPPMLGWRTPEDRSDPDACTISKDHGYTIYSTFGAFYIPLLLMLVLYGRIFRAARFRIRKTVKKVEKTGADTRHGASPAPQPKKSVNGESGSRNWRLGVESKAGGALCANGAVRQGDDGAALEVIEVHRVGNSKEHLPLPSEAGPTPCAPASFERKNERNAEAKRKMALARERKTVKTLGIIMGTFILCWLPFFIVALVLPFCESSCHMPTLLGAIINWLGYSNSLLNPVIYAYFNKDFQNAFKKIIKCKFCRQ

[14] = molecular target: 5-hydroxytryptamine receptor 2B (Homo sapiens) (UniProt P41595); test: Inhibition of 5-HT2B receptor (unknown origin) at 1 uM relative to control
[15] = molecular target: Sodium-dependent noradrenaline transporter (Homo sapiens) (UniProt P23975); test: Inhibition of NET (unknown origin) at 1 uM relative to control
[16] = molecular target: Sodium-dependent dopamine transporter (Homo sapiens) (UniProt Q01959); test: Inhibition of DAT (unknown origin) at 1 uM relative to control
[17] = molecular target: Sodium-dependent serotonin transporter (Homo sapiens) (UniProt P31645); test: Inhibition of SERT (unknown origin) at 1 uM relative to control
Mus musculus [18] = test: Antiallodynic activity in CD1 mouse model of capsaicin-induced mechanical allodynia assessed as effect on paw withdrawal latency time at 8 to 16 mg/kg, sc administered 5 mins after sigma1 receptor agonist PRE-084 dosing followed by capsaicin addition and measured after 30 mins post compound dose; format: functional, organism-based
Mus musculus [19] = test: Antiallodynic activity in CD1 mouse model of capsaicin-induced mechanical allodynia assessed as effect on paw withdrawal latency time at 32 mg/kg, sc administered 5 mins after sigma1 receptor agonist PRE-084 dosing followed by capsaicin addition and measured after 30 mins post compound dose; format: functional, organism-based
in vitro = details: mouse, liver microsomes
Description: Metabolic stability in mouse liver microsomes assessed as compound remaining at 25 uM after 1 hr in presence of NADPH by LC-MS analysis

Mu-type opioid receptor [20] = molecular target: Mu-type opioid receptor (Cavia porcellus, UniProt P97266); test: Displacement of [3H]DAMGO from MOR in guinea pig brain membranes incubated for 120 mins by scintillation counting method; format: cell membranes, Membrane
[21] = molecular target: Delta-type opioid receptor (Rattus norvegicus, UniProt P33533); test: Displacement of [3H]DPDPE from DOR in rat brain membranes incubated for 120 mins by scintillation counting method; format: cell membranes, Membrane
[22] = Stability in pH 2 aqueous HCl solution assessed as parent compound remaining after 24 hrs by HPLC; format: physicochemical; details: buffer, pH 2, 24 h
[23] = Stability in pH 7.4 phosphate buffer assessed as parent compound remaining after 24 hrs by HPLC; format: physicochemical; details: pH 7.4, 24 h
Mus musculus [24] = test: Antiallodynic activity in CD1 mouse model of capsaicin-induced mechanical allodynia assessed as effect on paw withdrawal latency time at 4 to 32 mg/kg, sc administered 5 mins after sigma1 receptor agonist PRE-084 dosing followed by capsaicin addition and measured after 30 mins post compound dose; format: functional, organism-based

T1 sequence (Q60492 whole entry): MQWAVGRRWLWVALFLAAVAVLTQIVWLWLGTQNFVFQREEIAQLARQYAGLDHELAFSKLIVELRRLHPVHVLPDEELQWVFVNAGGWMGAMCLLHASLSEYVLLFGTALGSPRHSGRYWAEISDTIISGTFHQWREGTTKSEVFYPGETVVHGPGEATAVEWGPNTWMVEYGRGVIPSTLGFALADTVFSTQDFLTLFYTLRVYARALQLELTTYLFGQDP
Sequence of Glutamate receptor ionotropic, NMDA 2B (Q13224 whole entry): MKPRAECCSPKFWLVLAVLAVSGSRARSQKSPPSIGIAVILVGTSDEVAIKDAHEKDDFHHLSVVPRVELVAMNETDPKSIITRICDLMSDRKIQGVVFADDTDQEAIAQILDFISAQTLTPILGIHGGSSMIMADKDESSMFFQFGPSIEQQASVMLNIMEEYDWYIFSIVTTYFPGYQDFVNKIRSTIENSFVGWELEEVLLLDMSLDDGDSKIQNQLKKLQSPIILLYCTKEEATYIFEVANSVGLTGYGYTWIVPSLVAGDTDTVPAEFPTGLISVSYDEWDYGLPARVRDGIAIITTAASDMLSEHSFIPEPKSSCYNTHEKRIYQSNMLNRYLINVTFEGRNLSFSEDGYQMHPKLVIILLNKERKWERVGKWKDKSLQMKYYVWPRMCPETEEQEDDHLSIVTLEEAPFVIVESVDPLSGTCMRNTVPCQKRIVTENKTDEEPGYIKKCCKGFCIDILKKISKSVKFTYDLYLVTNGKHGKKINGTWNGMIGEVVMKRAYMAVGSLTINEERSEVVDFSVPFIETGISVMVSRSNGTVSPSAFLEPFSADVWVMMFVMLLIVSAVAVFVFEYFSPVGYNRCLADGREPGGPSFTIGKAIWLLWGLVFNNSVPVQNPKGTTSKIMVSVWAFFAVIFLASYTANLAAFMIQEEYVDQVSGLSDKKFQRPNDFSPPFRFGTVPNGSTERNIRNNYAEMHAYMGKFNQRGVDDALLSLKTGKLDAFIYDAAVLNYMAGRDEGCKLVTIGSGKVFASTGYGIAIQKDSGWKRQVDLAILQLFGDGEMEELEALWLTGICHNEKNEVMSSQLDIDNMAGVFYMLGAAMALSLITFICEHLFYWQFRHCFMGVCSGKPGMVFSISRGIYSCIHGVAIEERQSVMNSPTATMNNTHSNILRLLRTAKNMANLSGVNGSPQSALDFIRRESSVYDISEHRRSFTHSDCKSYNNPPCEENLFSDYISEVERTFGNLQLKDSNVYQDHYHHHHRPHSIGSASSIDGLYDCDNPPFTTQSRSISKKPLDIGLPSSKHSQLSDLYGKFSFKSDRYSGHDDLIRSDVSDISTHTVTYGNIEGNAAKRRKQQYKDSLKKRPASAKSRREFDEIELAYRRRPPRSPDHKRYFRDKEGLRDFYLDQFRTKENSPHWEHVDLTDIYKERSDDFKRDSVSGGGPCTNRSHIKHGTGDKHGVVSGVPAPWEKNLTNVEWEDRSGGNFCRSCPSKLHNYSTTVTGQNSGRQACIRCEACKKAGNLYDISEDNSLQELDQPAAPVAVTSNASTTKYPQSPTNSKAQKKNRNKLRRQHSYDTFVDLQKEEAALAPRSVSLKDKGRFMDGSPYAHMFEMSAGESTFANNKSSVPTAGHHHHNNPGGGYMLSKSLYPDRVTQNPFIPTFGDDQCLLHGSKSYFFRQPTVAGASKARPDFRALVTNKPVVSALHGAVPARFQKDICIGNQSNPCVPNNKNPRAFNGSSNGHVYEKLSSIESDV
Sequence of Mu-type opioid receptor (Homo sapiens, UniProt P35372) (P35372 whole entry): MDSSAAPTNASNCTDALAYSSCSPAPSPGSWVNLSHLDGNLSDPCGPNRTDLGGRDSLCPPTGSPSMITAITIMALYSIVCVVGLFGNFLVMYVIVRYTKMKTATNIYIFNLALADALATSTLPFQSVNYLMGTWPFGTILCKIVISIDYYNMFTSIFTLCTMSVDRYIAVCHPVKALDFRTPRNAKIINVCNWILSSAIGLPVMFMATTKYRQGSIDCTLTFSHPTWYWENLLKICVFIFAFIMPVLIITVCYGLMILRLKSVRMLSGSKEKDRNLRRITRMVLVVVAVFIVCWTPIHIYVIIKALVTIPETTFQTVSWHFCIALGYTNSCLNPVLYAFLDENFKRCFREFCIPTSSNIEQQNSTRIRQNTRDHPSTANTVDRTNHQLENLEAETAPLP
Sequence of 5-hydroxytryptamine receptor 2B (Homo sapiens) (P41595 whole entry): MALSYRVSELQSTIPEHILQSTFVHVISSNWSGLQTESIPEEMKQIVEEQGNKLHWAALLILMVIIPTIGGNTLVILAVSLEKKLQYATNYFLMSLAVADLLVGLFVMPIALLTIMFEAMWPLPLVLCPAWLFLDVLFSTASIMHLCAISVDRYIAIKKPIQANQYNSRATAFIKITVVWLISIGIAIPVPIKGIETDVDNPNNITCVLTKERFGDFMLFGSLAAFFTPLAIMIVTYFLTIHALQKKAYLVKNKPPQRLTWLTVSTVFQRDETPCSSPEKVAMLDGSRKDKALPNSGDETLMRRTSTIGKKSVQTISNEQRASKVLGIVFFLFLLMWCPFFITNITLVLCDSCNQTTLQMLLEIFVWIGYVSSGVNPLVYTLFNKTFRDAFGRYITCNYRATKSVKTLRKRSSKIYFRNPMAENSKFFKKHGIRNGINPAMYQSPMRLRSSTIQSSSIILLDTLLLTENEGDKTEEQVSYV
Sequence of Sodium-dependent serotonin transporter (Homo sapiens) (P31645 whole entry, looked up): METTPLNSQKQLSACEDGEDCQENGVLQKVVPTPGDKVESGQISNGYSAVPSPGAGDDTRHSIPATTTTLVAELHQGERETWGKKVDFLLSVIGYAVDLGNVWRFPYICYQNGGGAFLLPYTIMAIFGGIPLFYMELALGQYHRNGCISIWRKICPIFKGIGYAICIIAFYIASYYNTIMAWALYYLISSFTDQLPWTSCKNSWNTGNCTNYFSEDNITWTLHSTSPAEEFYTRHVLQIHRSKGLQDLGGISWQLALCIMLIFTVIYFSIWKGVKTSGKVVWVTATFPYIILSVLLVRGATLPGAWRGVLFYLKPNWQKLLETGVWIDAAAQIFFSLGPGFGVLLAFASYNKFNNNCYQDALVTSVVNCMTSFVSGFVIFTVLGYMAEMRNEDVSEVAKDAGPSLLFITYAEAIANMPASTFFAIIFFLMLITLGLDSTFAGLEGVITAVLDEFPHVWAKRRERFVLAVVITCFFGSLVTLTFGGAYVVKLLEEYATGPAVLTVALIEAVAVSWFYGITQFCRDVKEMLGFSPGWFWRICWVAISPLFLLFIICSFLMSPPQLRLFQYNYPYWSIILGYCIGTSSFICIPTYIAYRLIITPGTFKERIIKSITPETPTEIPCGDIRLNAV
Sequence of Delta-type opioid receptor (P33533 whole entry): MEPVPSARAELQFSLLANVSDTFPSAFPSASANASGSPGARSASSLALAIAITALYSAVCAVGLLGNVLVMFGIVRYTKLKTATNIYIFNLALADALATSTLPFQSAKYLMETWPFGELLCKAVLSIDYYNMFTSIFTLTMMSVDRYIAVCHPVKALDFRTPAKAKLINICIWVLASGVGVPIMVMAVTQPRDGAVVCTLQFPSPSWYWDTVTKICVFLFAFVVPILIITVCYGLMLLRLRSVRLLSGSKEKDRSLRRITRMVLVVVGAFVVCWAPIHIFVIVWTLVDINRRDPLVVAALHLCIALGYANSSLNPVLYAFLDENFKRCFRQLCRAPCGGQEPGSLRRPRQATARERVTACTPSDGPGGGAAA
Sequence of Histamine H1 receptor (Homo sapiens) (P35367 whole entry): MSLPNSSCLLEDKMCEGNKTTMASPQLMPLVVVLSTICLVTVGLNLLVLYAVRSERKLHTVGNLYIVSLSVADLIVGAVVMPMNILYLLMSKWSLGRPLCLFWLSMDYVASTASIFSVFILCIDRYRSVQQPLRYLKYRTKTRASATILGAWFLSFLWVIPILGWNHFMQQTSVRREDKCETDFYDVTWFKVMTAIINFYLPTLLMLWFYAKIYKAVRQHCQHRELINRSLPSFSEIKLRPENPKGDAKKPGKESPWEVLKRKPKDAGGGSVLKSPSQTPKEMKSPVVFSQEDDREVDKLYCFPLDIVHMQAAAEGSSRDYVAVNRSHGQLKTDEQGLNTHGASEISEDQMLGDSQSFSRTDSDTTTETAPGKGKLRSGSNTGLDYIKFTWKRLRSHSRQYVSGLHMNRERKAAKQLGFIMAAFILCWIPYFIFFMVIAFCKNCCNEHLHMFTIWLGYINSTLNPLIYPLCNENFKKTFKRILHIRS
Sequence of Sodium-dependent noradrenaline transporter (Homo sapiens) (P23975 whole entry): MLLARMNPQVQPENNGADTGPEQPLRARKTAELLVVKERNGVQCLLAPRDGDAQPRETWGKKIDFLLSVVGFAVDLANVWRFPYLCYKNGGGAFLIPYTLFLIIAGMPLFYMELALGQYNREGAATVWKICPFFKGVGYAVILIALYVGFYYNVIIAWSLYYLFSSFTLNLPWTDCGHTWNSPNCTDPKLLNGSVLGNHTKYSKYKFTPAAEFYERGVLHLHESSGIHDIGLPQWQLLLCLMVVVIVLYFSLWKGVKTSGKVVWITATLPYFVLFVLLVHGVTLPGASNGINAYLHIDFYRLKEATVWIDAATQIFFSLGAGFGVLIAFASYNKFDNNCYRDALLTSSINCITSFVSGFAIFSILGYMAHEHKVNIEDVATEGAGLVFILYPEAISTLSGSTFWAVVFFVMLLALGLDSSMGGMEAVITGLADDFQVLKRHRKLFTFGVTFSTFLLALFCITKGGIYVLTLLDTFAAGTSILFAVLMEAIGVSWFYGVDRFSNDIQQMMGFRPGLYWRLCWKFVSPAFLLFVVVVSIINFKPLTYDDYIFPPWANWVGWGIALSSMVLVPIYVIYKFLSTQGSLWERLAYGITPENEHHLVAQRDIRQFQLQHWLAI
Sequence of Mu-type opioid receptor (Cavia porcellus, UniProt P97266) (P97266 whole entry): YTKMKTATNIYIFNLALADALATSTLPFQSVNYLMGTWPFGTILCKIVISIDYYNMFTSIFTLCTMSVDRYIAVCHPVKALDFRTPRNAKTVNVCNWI

- Ki [1]: 77 nM
Compound: O[C@@H]1Cc2ccccc2C2(CCC(N3CCN(C4CCCCC4)CC3)CC2)O1 (stereo partly specified)

- Ki [1]: 4.4 nM
- Ki [2]: 213 nM
- Ratio Ki [6]: 50
Compound: CO[C@H]1Cc2ccccc2C2(CCC(N3CCN(C4CCCCC4)CC3)CC2)O1 (stereo partly specified)

- Ki [1]: 6.3 nM
- Ki [2]: 62 nM
- Ratio Ki [6]: 10
Compound: CO[C@@H]1Cc2ccccc2C2(CCC(N3CCN(C4CCCCC4)CC3)CC2)O1 (stereo partly specified)

- Ki [1]: 61 nM
- Ki [2]: 172 nM
Compound: OCC[C@@H]1Cc2ccccc2C2(CCC(N3CCN(C4CCCCC4)CC3)CC2)O1 (stereo partly specified)

- Ki [2]: 45 nM
- Ki [8]: > 1000 nM
- Ki [9]: 65 nM
- EC50 (Mu-type opioid receptor [10]): 1760 nM
- inhibition [11]: < 50%
- inhibition [12]: < 50%
- inhibition [13]: 62%
- inhibition [14]: < 50%
- inhibition [15]: < 50%
- inhibition [16]: < 50%
- inhibition [17]: < 50%
- remaining at 1 h, 25 µM (in vitro): 71.8%
Compound: FCC[C@@H]1Cc2ccccc2C2(CCC(N3CCN(C4CCCCC4)CC3)CC2)O1 (stereo partly specified)
- Activity (Mus musculus [3]): Active
- Activity (Mus musculus [18]): inactive
- Activity (Mus musculus [19]): Active

- Ki [1]: 19 nM
- Ki [2]: 432 nM
- Ki (Mu-type opioid receptor [20]): 434 nM
- Ki [21]: 647 nM
- Ki [8]: > 1000 nM
- Ki [9]: 31 nM
- Stability [22]: Stable
- Stability [23]: Stable
- remaining at 1 h, 25 µM (in vitro): 69.5%
Compound: FCC[C@H]1Cc2ccccc2C2(CCC(N3CCN(C4CCCCC4)CC3)CC2)O1 (stereo partly specified)
- Activity (Mus musculus [3]): Active
- Activity (Mus musculus [19]): inactive
- Activity (Mus musculus [4]): Active
- Activity (Mus musculus [24]): inactive

Second part, the compound before the results:

Compound: COc1cc2c(cc1OC)CN(C1CCC3(CC1)O[C@H](OC)Cc1ccccc13)CC2 (stereo partly specified)
- Ki [1]: 639 nM
- Ki [2]: 58 nM

Compound: CN1CCN(CCc2ccc(Cl)c(Cl)c2)CC1
- Activity (Mus musculus [3]): Active
- Activity (Mus musculus [4]): Active

Compound: COc1cccc2c1CCCC2CCCN1CCN(C2CCCCC2)CC1 (stereo unspecified)
- Ki [2]: 0.68 nM
- Ki [5]: 0.68 nM

Compound: Fc1ccc(-n2cc(CCCCN3CCC4(CC3)OCc3ccccc34)c3ccccc32)cc1 [SIRAMESINE]
- Ki [1]: 17 nM
- Ki [7]: 17 nM

Compound: COc1cc2c(cc1OC)CN(C1CCC3(CC1)O[C@H](O)Cc1ccccc13)CC2 (stereo partly specified)
- Ki [1]: 583 nM
- Ki [2]: 99 nM

Compound: COc1cc2c(cc1OC)CN(C1CCC3(CC1)O[C@H](CCF)Cc1ccccc13)CC2 (stereo partly specified)
- Ki [1]: 807 nM

Compound: COc1cc2c(cc1OC)CN(C1CCC3(CC1)O[C@@H](OC)Cc1ccccc13)CC2 (stereo partly specified)
- Ki [2]: 105 nM

Compound: Cc1ccc(CNC2CCC3(CC2)O[C@@H](CCF)Cc2ccccc23)c(C)c1 (stereo partly specified)
- Ki [1]: 966 nM

Compound: Cc1ccc(CNC2CCC3(CC2)O[C@H](CCO)Cc2ccccc23)c(C)c1 (stereo partly specified)
- Ki [2]: 381 nM

Compound: FCC[C@@H]1Cc2ccccc2C2(CCC(NC3CCc4ccccc4CC3)CC2)O1 (stereo partly specified)
- Ki [1]: 667 nM
- Ki [2]: 305 nM

Compound: CCOC(=O)C[C@@H]1Cc2ccccc2C2(CCC(NCc3ccc(C)cc3C)CC2)O1 (stereo partly specified)
- Ki [2]: 231 nM

Compound: CO[C@@H]1Cc2ccccc2C2(CCC(NCc3ccc(C)cc3C)CC2)O1 (stereo partly specified)
- Ki [1]: 736 nM
- Ki [2]: 7.6 nM
